Experimental data taken from paper PMC12647759 (Scientific Reports, 2025).
Several values for one entry are separate records, joined by “and”; a condition that tells them apart may be missing. Identical values can stand only once.

What was measured:
Format in all cases: biochemical
[1] = target: T1, human PLCδ1 (Homo sapiens, UniProt P51178); assay: In vitro PLC assay using fluorogenic substrate Compound 1, PLCδ1; details: for IC50: purified PLCδ1, fluorogenic substrate Compound 1, read-out: IC50, inhibition of PLCδ1 (hydrolysis of Compound 1)
T1 construct: expressing the full-length polypeptides of human PLCε, PLCβ4, PLCδ1 and PLCγ1 as FLAG fusions; made in house; host or cells: Expi293F cells
T1 sequence (P51178 1-756): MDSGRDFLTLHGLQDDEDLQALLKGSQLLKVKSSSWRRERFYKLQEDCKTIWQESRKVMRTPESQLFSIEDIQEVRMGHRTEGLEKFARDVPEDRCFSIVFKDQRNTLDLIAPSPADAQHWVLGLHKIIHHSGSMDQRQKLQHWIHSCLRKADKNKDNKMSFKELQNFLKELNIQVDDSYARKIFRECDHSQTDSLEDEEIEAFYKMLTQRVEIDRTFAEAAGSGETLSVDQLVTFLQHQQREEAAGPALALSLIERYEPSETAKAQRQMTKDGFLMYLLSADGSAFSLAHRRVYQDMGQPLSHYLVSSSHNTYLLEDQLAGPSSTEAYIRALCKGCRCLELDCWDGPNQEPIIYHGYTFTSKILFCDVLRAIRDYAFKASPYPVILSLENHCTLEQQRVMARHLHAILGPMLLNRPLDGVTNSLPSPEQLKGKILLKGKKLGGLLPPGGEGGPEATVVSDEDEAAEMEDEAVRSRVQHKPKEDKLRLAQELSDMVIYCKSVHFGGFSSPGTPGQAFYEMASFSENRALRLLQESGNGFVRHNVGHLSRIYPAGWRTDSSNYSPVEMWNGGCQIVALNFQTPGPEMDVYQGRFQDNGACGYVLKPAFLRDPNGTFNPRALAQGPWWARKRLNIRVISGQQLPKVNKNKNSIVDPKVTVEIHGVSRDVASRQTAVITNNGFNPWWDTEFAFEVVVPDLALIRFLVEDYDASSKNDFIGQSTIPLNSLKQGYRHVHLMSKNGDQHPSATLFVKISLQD
Experimental: (§1) Ten µl of 2 × substrate solutions (50 mM HEPES pH7.2, 200 mM NaCl, 0.2 mM CaCl2, 0.4 mM DTT, 0.4 µM EDTA, 0.02% gelatin, 0.2% sodium cholate and 60 µM Compound 1) were added to each well of a 384-well plate (CONING #3573) containing 10 µl of purified PLCε (120 ng) and incubated with shaking at 30 °C for 3 h. After terminating the reaction by the addition of 2 µl of 5 mM EDTA, the fluorescence emission was measured at 520 nm with the excitation at 485 nm by a microplate reader (POLARstar Omega-25). For measuring inhibition by compounds for HTS, the reactions were conducted at RIKEN Center for Sustainable Resource Science (CSRS) as described above except that 5 µl of compound solution and 5 µl of purified PLCe (120 ng) were added to each well. Solution dispensing and fluorescence detection were conducted by using an automated dispenser (EDR-384, Biotec) and a hybrid multi-mode microplate reader (Synergy H4, Biotec), respectively. For determination of the IC50 values for ZPT and Zn^2+, the EDTA concentration was reduced to one-tenth to avoid its zinc-chelating effect. For assay of the other PLC classes, the reactions were performed similarly except that PLCβ4 (5 ng), PLCδ1 (0.1 ng) or PLCγ1 (0.3 ng) was used instead of PLCε.

[2] = target: T2, human PLCγ1 (Homo sapiens, UniProt P19174); assay: In vitro PLC assay using fluorogenic substrate Compound 1, PLCγ1; details: for IC50: purified PLCγ1, fluorogenic substrate Compound 1, read-out: IC50, inhibition of PLCγ1 (hydrolysis of Compound 1)
T2 construct: expressing the full-length polypeptides of human PLCε, PLCβ4, PLCδ1 and PLCγ1 as FLAG fusions; made in house; host or cells: Expi293F cells
T2 sequence (P19174 1-1290): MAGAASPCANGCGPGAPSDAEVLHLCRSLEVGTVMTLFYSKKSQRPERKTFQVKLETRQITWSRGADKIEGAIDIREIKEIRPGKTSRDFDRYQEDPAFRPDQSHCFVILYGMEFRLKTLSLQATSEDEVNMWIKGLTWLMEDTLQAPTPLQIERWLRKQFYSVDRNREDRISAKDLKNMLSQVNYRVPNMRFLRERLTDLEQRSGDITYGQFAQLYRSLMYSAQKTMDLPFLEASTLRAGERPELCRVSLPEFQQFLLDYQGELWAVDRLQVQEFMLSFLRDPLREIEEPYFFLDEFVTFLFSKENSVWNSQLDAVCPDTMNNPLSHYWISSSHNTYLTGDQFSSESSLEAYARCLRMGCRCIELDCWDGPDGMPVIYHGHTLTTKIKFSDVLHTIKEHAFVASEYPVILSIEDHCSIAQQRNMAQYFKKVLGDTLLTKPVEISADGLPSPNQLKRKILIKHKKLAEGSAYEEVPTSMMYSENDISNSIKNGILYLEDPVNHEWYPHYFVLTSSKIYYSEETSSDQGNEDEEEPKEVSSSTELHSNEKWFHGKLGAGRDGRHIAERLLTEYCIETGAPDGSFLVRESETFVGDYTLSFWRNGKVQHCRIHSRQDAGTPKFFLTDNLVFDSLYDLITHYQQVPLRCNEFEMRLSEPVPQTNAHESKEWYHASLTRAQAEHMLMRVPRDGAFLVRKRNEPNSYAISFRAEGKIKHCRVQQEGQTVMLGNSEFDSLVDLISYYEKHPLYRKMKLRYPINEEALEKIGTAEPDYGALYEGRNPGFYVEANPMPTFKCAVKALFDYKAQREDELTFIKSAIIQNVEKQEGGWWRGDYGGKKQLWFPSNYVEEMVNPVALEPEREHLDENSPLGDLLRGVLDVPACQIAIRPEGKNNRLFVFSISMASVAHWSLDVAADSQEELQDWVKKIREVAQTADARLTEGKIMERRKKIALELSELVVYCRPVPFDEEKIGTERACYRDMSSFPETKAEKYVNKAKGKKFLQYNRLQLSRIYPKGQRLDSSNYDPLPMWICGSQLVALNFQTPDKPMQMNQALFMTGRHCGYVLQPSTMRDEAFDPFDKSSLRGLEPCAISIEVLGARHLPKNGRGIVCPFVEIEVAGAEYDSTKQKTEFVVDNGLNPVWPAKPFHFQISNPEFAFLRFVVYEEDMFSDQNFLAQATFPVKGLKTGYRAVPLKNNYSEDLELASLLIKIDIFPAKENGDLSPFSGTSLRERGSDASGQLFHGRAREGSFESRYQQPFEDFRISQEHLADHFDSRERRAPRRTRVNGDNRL
Experimental: as §1

[3] = target: T3, human PLCε (Homo sapiens, UniProt Q9P212); assay: In vitro PLC assay using fluorogenic substrate Compound 1 (HTS), PLCε; details: for IC50: purified full-length PLCε, fluorogenic substrate Compound 1, read-out: IC50, inhibition of PLCε (hydrolysis of Compound 1)
T3 construct: expressing the full-length polypeptides of human PLCε, PLCβ4, PLCδ1 and PLCγ1 as FLAG fusions; made in house; host or cells: Expi293F cells
Experimental: For measuring inhibition by compounds for HTS, the reactions were conducted at RIKEN Center for Sustainable Resource Science (CSRS) as described above except that 5 µl of compound solution and 5 µl of purified PLCe (120 ng) were added to each well. […] For determination of the IC50 values for ZPT and Zn^2+, the EDTA concentration was reduced to one-tenth to avoid its zinc-chelating effect. For assay of the other PLC classes, the reactions were performed similarly except that PLCβ4 (5 ng), PLCδ1 (0.1 ng) or PLCγ1 (0.3 ng) was used instead of PLCε.

[4] = Compound 1 as substrate, varying concentrations

T3 sequence (Q9P212 whole entry, the tested form may be a part): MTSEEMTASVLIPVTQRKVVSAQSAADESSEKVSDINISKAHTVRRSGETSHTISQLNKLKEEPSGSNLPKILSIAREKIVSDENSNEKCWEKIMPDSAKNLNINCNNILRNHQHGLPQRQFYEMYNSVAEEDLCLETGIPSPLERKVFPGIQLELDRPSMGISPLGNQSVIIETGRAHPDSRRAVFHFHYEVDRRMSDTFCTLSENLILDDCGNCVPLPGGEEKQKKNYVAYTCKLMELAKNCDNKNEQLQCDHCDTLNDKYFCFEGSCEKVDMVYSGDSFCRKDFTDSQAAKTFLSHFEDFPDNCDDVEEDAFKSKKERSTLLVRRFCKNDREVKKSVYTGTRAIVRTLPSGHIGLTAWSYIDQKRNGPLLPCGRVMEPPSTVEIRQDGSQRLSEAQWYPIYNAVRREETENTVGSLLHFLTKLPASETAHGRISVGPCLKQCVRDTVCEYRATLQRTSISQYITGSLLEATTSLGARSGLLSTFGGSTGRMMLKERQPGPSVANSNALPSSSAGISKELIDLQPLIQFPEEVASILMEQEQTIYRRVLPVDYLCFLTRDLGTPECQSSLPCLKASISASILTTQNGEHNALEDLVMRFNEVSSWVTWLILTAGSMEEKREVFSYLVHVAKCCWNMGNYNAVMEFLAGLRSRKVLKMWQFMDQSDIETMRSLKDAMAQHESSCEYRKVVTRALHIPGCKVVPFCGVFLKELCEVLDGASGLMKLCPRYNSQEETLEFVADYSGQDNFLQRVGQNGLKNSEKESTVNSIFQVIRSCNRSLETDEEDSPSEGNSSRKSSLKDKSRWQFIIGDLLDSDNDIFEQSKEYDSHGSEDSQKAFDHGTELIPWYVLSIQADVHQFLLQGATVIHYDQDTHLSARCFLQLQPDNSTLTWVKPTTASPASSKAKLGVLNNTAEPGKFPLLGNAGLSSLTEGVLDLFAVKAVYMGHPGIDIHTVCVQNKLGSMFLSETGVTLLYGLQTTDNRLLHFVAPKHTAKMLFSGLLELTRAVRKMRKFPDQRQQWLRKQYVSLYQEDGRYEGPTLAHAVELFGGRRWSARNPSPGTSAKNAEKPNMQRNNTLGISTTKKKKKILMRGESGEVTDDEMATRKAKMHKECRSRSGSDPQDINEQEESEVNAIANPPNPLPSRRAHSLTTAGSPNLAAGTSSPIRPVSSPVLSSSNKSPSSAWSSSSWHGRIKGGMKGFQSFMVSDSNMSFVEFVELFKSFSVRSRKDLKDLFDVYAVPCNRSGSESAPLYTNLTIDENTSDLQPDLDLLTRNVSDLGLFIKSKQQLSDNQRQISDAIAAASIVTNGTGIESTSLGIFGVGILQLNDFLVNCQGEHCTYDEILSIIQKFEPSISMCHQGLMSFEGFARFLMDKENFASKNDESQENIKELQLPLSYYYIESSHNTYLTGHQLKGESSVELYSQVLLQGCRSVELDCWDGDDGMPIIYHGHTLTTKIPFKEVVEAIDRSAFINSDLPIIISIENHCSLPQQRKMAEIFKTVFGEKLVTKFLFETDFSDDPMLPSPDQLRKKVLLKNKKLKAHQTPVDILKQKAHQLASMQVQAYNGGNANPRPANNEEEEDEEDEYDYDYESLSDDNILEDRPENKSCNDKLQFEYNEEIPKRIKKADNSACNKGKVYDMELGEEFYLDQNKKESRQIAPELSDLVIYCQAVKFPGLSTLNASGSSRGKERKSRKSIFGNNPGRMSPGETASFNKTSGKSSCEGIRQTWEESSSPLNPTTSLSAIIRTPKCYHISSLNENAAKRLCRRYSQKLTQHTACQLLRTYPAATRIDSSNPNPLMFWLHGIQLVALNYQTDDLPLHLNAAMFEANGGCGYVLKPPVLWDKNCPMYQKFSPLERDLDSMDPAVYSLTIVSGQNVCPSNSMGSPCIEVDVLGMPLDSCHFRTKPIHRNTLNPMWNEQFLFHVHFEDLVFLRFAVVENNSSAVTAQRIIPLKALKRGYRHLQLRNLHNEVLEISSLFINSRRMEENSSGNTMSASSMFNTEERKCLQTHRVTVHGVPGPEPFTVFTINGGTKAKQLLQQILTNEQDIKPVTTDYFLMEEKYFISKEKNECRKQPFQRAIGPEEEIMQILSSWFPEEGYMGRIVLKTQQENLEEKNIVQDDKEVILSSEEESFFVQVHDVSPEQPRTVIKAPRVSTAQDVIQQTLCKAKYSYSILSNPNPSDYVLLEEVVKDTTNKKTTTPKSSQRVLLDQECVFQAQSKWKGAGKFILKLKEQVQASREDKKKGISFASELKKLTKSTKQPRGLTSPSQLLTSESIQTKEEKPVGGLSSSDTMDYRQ

CCCCCCOc1ccc2c(c1)Oc1cc(OP(=O)(O)O[C@H]3[C@H](O)[C@@H](O)[C@H](OP(=O)(O)O)[C@@H](O)[C@H]3O)ccc1C21OC(=O)c2ccccc21 (stereo partly shown) [compound 1]
IC50 [1]: 400 nM | IC50 [2]: 8700 nM | IC50 [3]: 3100 nM

O=S(=O)([O-])[O-].[Zn+2] [ZnSO4]
inhibitory activity toward PLCδ [1, 4]: without exhibiting any noticeable inhibitory activities | inhibitory activity toward PLCγ [2, 4]: without exhibiting any noticeable inhibitory activities | PLCε inhibitory activity of ZnSO4 on addition of excess sodium pyrithione ([3]; 5 µM ZnSO4, varying concentrations of sodium pyrithione): compromised the inhibitory activity of ZnSO4 in a dose-dependent manner | IC50 [3]: 1200 nM

COc1ccc2c(c[n+](C)c3c4cc5c(cc4ccc23)OCO5)c1OC [chelerythrine]
IC50 [1]: 7300 nM | IC50 [2]: 1800 nM | IC50 [3]: 1300 nM

C[n+]1cc2c3c(ccc2c2ccc4cc5c(cc4c21)OCO5)OCO3 [Sanguinarine, sanguinarine]
IC50 [1]: 48000 nM and 47800 nM | IC50 [2]: 1600 nM | IC50 [3]: 1900 nM
